Experimental data from ChEMBL document CHEMBL1201862, “PubChem BioAssay data set” (2004).
Active and inactive are the calls of the source.

What was measured:
Vero = assay: mammalian cell viability reduction – secondary assay, cytotoxicity control for West Nile virus antiviral project, dose response (AID 1650); type: functional; settings: Chlorocebus sabaeus
[1] = cytotoxicity toward MDA-MB-231 breast cancer cells – cell-based, CellTiter-Glo luminescence, cherry-pick, cytotoxicity control for RAD54 inhibitor project, dose response (AID 651692); type: functional
A549 = assay: viability loss in A549 cells – cell-based, plate reader, cherry-pick samples, cytotoxicity control, dose response (AID 687028); type: functional; settings: Homo sapiens
[2] = molecular target: T1, DNA repair and recombination protein RAD54-like (Homo sapiens, UniProt Q92698); assay: RAD54 Holliday junction migration blockers – biochemical, fluorescence, cherry-picked samples, dose series, confirmation (AID 651657); type: functional
T1 sequence (Q92698 whole entry): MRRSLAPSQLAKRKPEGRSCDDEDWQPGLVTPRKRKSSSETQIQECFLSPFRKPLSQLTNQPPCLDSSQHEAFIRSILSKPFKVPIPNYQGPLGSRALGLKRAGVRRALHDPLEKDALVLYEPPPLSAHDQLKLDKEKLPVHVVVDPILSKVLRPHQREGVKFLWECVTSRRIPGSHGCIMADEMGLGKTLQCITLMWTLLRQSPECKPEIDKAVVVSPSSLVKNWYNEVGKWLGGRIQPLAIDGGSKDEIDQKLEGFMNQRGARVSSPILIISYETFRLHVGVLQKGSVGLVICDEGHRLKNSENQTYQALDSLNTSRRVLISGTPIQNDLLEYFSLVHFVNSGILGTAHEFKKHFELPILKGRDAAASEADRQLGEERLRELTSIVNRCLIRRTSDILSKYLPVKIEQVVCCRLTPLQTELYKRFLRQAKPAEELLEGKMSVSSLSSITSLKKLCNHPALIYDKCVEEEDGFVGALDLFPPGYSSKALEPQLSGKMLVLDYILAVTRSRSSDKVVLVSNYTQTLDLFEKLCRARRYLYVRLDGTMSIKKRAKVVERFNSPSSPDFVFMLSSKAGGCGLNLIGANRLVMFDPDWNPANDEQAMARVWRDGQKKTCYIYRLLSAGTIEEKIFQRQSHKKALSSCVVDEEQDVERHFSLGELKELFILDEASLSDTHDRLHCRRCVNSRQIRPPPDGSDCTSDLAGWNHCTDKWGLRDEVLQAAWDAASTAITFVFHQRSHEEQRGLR

[3] = viability of uninfected HEp-2 cells – cell-based, HTS, cytotoxicity control for RSV inhibitor project, dose response (AID 2410); type: functional; settings: human respiratory syncytial virus
Caspase-3 = molecular target: T2, Caspase-3 (Homo sapiens, UniProt P42574); assay: Dose-response confirmation of uHTS inhibitor hits of Sentrin-Specific Protease 8 in a Caspase-3 Fluorescence assay.; type: functional
T2 sequence (P42574 whole entry): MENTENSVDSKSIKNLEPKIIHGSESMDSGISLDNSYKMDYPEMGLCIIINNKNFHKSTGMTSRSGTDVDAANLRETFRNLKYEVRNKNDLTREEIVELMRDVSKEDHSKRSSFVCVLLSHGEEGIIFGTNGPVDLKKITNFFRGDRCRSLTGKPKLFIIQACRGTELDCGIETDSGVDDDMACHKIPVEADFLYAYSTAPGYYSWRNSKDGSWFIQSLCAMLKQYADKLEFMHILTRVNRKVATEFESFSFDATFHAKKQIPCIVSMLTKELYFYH

Caspase-6 = molecular target: T3, Caspase-6 (Homo sapiens, UniProt P55212); assay: inhibition of CASP6 peptide cleavage – biochemical, VEID-R110 fluorescence, cherry-pick, dose response (AID 720632)
T3 sequence (P55212 whole entry): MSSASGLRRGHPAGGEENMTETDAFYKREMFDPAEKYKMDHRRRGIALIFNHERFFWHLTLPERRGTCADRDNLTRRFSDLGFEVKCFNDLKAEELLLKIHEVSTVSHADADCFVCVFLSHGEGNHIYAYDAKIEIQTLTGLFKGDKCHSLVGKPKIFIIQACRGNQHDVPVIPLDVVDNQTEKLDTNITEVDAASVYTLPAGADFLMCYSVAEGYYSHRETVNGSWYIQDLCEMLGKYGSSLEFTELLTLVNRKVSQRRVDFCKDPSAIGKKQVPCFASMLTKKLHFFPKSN

[4] = molecular target: T4, Sentrin-specific protease 8 (Homo sapiens, UniProt Q96LD8); type: functional
T4 sequence (Q96LD8 whole entry): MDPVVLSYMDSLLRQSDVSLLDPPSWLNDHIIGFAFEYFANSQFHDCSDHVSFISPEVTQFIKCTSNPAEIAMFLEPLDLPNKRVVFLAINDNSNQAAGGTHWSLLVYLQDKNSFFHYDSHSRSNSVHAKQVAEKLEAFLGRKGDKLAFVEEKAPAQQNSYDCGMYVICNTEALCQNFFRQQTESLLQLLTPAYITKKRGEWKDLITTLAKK

[5] = molecular target: T4, Sentrin-specific protease 8; type: functional; remark: listed apart in the source
Beta-lactamase [6] = molecular target: T5, Beta-lactamase (Pseudomonas aeruginosa, UniProt Q79MP6); assay: inhibition of IMP-1 beta-lactamase activity – biochemical, epi-absorbance, selectivity assay for VIM-2 inhibitor project, dose response (AID 1920)
T5 sequence (Q79MP6 whole entry): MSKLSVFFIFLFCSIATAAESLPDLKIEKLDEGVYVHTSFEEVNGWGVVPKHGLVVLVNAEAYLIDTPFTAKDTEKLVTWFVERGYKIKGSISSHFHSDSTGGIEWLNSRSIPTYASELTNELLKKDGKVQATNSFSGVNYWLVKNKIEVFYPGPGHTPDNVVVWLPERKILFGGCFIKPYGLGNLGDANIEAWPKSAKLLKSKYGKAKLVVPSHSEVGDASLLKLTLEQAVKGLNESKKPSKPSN

Beta-lactamase [7] = molecular target: T5, Beta-lactamase; assay: […] counterscreen for selective VIM-2 inhibitors: dose response biochemical high throughput screening assay to identify inhibitors of IMP-1 metallo-beta-lactamase.
Beta Lactamase [8] = molecular target: T6, Beta Lactamase (Pseudomonas aeruginosa, UniProt Q932Y6); assay: VIM-2 CCF2 hydrolysis inhibition, assay artifact filter – biochemical, FRET readout, CCF2 substrate, artefact control for selective VIM-2 inhibitor project, dose response (AID 1926)
T6 sequence (Q932Y6 whole entry): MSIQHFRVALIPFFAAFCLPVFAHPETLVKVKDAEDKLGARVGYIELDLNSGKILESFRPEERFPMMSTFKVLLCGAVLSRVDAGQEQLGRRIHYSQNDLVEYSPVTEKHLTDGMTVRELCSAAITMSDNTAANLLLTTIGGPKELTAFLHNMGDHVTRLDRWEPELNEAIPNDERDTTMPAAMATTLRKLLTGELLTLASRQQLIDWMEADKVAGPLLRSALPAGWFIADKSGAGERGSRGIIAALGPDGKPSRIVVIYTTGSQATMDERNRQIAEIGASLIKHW

Beta-lactamase [9] = molecular target: Beta-lactamase (Salmonella choleraesuis (strain SC-B67), UniProt Q5J463); assay: Epi-absorbance-based counterscreen for selective VIM-2 inhibitors: dose response biochemical high throughput screening assay to identify inhibitors of TEM-1 serine-beta-lactamase.
Chain of Beta-lactamase (Salmonella choleraesuis (strain SC-B67), UniProt Q5J463) (Q5J463 whole entry): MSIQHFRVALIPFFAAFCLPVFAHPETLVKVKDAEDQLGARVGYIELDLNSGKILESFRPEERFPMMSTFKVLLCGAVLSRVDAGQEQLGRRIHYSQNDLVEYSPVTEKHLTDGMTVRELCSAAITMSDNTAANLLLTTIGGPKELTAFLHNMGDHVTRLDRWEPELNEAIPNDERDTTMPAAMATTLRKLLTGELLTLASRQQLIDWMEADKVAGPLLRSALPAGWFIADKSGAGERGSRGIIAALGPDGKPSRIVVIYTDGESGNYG

Beta Lactamase [10] = molecular target: T6, Beta Lactamase; assay: concentration-dependent VIM-2 enzyme inhibition – biochemical, epi-absorbance readout, selective inhibitors, dose response (AID 1919)
[11] = cytotoxicity in HEK293 background cells – cell-based, dry powder, set 2, counter-screen for EBV LMP1 inhibitor project, dose response (AID 624374); type: functional
[12] = viability loss in LCL cells – cell-based, plate reader, dry powder, set 2, cytotoxicity control, dose response (AID 624367); type: functional
cells [13] = type: functional, cell-based
cells [14] = type: functional, cell-based; remark: listed apart in the source
[15] = molecular target: T7, Trace amine-associated receptor 1 (Homo sapiens, UniProt Q96RJ0); assay: Counterscreen for agonists of the human trace amine associated receptor 1 (hTAAR1): Fluorescence-based cell-based high throughput dose response assay to identify hTAAR1 agonist that also desensitize TAAR1 receptor response.; type: functional
T7 sequence (Q96RJ0 whole entry): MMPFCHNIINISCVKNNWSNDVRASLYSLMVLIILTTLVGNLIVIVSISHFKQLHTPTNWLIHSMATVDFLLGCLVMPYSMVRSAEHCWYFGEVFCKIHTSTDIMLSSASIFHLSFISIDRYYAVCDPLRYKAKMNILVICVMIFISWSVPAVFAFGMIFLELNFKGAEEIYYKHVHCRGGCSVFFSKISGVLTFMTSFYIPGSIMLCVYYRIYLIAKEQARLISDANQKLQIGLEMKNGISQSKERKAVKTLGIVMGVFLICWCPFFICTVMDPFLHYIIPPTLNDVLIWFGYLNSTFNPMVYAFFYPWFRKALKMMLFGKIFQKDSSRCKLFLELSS

[16] = molecular target: T7, Trace amine-associated receptor 1; assay: Fluorescence-based cell-based high throughput dose response assay to identify agonists of the human trace amine associated receptor 1 (TAAR1).; type: functional

CN1CCCC1CCNc1ccc2sc3ccccc3c(=O)c2c1 (stereo not given)
CC50 (Vero): 21.1 µM (active) | AC50 [1]: 48.8 µM (active) | AC50 (A549): 20.2 µM (active) | AC50 [2]: 13.6 µM (active) | CC50 [3]: 11.5 µM (active)

O=C(COC(=O)c1ccc([N+](=O)[O-])o1)NCc1ccc(F)cc1
IC50 (Caspase-3): 99.7 µM (inactive) | AC50 (Caspase-6): 40.7 µM (active) | IC50 [4]: 6.4 µM (active) | IC50 [5]: 11.7 µM (active)

O=C(C1=C(O)C(=O)N(Cc2cccnc2)C1c1ccccn1)c1ccccc1 (stereo not given)
IC50 (Beta-lactamase [6]): > 59.6 µM (inactive) | IC50 (Beta-lactamase [7]): > 59.6 µM (inactive) | IC50 (Beta Lactamase [8]): 2.17 µM (active) | IC50 (Beta-lactamase [9]): > 59.6 µM (inactive) | IC50 (Beta Lactamase [10]): 5 µM (active)

Cc1noc(C)c1S(=O)(=O)Nc1ccc2c(c1)C(=O)N([C@@H](C)CO)C[C@@H](C)[C@@H](CN(C)Cc1ccc(C(F)(F)F)cc1)OCCCC[C@H](C)O2
AbsAC35 [11]: 54.05 µM | AbsAC35 [12]: 52.95 µM

O=C(O)/C=C/C(=O)NCCC1=CCCCC1
EC50 (cells [13]): > 29.9 µM (inactive) | IC50 (cells [14]): > 29.9 µM (inactive) | IC50 [15]: 7.65 µM (active) | EC50 [16]: 1.39 µM (active)
